According to patent US10881110B2, “Herbicidal compositions comprising isoxazolo[5,4-b]pyridines” (BASF SE, priority 2014, dated 2021):

What was measured:
Assay in all cases: greenhouse post-emergence herbicidal test
[1] = system: ALOMY; type: in vivo, Alopecurus myosuroides; parameters: key to herbicidal activity against ALOMY found: rating on a scale from 0 to 100; conditions: post emergence
Protocol: (§1) The culture containers used were plastic pots containing medium loamy sand with approximately 4.6% of humus and 69.9% sand as substrate. The seeds of the test plants were sown separately for each species.
(§2) For the post-emergence treatment, the test plants were grown to a plant height of from 1 to 15 cm, depending on the plant habit, and only then treated with the active compounds which had been suspended or emulsified in water. To this end, the test plants were either sown directly, and grown in the same containers, or they were first grown separately as seedlings and transplanted into the test containers a few days prior to treatment.
(§3) Depending on the species, the plants were kept at 10-25° C. and 20-35° C., respectively.
(§4) The test period extended over 1 to 3 weeks. During this time, the plants were tended and their response to the individual treatments was evaluated 20 days after treatment except mentioned otherwise.
(§5) Evaluation was carried out using a scale from 0 to 100. 100 means no emergence of the plants, or complete destruction of at least the above-ground parts, and 0 means no damage or normal course of growth.
(§6) The respective stated components A and B, and, if appropriate, C, were formulated as a 10% by weight strength emulsion concentrate and, with addition of the amount of solvent system, introduced into the spray liquor used for applying the active compound. In the examples, the solvent used was water.
(§7) In the examples below, using the method of S. R. Colby (1967) “Calculating synergistic and antagonistic responses of herbicide combinations”, Weeds 15, p. 22 ff., the value E, which is expected if the activity of the individual active compounds is only additive, was calculated. E=X+Y−(X·Y/100)

[2] = system: POLCO; type: in vivo, Polygonum convolvulus; parameters: key to herbicidal activity against POLCO found: rating on a scale from 0 to 100; conditions: post emergence
Protocol: as §1, §2, §3, §4, §5, §6, §7

[3] = system: ERICA; type: in vivo, Conyza canadensis; parameters: key to herbicidal activity against ERICA found: rating on a scale from 0 to 100; conditions: post emergence
Protocol: as §1, §2, §3, §4, §5, §6, §7

[4] = system: GERDI; type: in vivo, Geranium dissectum; conditions: Geranium dissectum, post-emergence, 480 h, post emergence, read-out: herbicidal activity against GERDI found
Protocol: as §1, §2, §3, §4, §5, §6, §7

[5] = system: MATCH; type: in vivo, Matricaria recutita; parameters: key to herbicidal activity against MATCH found: rating on a scale from 0 to 100; conditions: post emergence
Protocol: as §1, §2, §3, §4, §5, §6, §7

[6] = system: ABUTH; type: in vivo, Abutilon theophrast; parameters: key to herbicidal activity against ABUTH found: rating on a scale from 0 to 100; conditions: post emergence
Protocol: as §1, §2, §3, §4, §5, §6, §7

[7] = system: GALAP; type: in vivo, Galium aparine; parameters: key to herbicidal activity against GALAP found: rating on a scale from 0 to 100; conditions: post emergence
Protocol: as §1, §2, §3, §4, §5, §6, §7

[8] = system: VIOAR; type: in vivo, Viola arvensis; parameters: key to herbicidal activity against VIOAR found / herbicidal activity against VIOLA found: rating on a scale from 0 to 100; conditions: post emergence
Protocol: as §1, §2, §3, §4, §5, §6, §7

[9] = system: APESV; type: in vivo, Apera spica-venti; parameters: key to herbicidal activity against APESV found: rating on a scale from 0 to 100; conditions: post emergence; applied alone at 0.5 g/ha a.i.
Protocol: as §1, §2, §3, §4, §5, §6, §7

[10] = applied alone at 31.25 g/ha a.i.
[11] = applied alone at 62.5 g/ha a.i.
[12] = application rate a.i.: I.1 20.8 g/ha, B.107 (topramezone) 6 g/ha, alone or as mixture (composition 1.107)
[13] = application rate a.i.: I.1 62.5 g/ha, B.107 (topramezone) 6 g/ha, alone or as mixture (composition 1.107)
[14] = g/ha a.i.: I.1 125, B.63 1, mixture 125+1
[15] = g/ha a.i.: I.1 125, B.63 0.5, mixture 125+0.5
[16] = a.i. g/ha: I.1 31.25, B.92 0.5, 20 days after treatment

COC(=O)c1ccc(I)cc1S(=O)(=O)[N-]C(=O)Nc1nc(C)nc(OC)n1.[Na+] [B.44, iodosulfuron-methyl-sodium]
herbicidal activity against ALOMY found ([1]; 1 g/ha a.i.): 20 | herbicidal activity against POLCO found ([2]; 1 g/ha a.i.): 90

CCC(CC)Nc1c([N+](=O)[O-])cc(C)c(C)c1[N+](=O)[O-] [B.123, pendimethalin]
pest or weed control at 500 g/ha ([3]; Erigeron canadensis, post-emergence, 480 h, B.123 alone 500 g/ha a.i., read-out: herbicidal activity against ERICA found): 30% | pest or weed control at 1000 g/ha ([3]; Erigeron canadensis, post-emergence, 480 h, B.123 alone 1000 g/ha a.i., read-out: herbicidal activity against ERICA found): 60% | pest or weed control at 1000 g/ha ([4]; B.123 alone 1000 g/ha a.i.): 75% | pest or weed control at 1000 g/ha ([2]; Fallopia convolvulus, post-emergence, 480 h, B.123 alone 1000 g/ha a.i., read-out: herbicidal activity against POLCO found): 65%

CCCCCCCC/C=C\CCCCCCCC(=O)OC [methyl oleate]
pest or weed control at 3 g/ha ([5]; Matricaria chamomilla, post-emergence, 480 h, methyl oleate 3 g/ha a.i., read-out: herbicidal activity against MATCH found): 0% | pest or weed control at 6 g/ha ([5]; Matricaria chamomilla, post-emergence, 480 h, methyl oleate 6 g/ha a.i., read-out: herbicidal activity against MATCH found): 0% | pest or weed control at 12 g/ha ([5]; Matricaria chamomilla, post-emergence, 480 h, methyl oleate 12 g/ha a.i., read-out: herbicidal activity against MATCH found): 0% | pest or weed control at 6 g/ha ([6]; Abutilon theophrasti, post-emergence, 480 h, methyl oleate 6 g/ha a.i., read-out: herbicidal activity against ABUTH found): 0% | pest or weed control at 12 g/ha ([6]; Abutilon theophrasti, post-emergence, 480 h, methyl oleate 12 g/ha a.i., read-out: herbicidal activity against ABUTH found): 0% | pest or weed control at 3 g/ha ([3]; Erigeron canadensis, post-emergence, 480 h, methyl oleate 3 g/ha a.i., read-out: herbicidal activity against ERICA found): 0% | pest or weed control at 6 g/ha ([3]; Erigeron canadensis, post-emergence, 480 h, methyl oleate 6 g/ha a.i., read-out: herbicidal activity against ERICA found): 0% | pest or weed control at 12 g/ha ([3]; Erigeron canadensis, post-emergence, 480 h, methyl oleate 12 g/ha a.i., read-out: herbicidal activity against ERICA found): 0% | pest or weed control at 3 g/ha ([4]; methyl oleate 3 g/ha a.i.): 0% | pest or weed control at 6 g/ha ([4]; methyl oleate 6 g/ha a.i.): 0% | pest or weed control at 12 g/ha ([4]; methyl oleate 12 g/ha a.i.): 0% | pest or weed control at 3 g/ha ([2]; Fallopia convolvulus, post-emergence, 480 h, methyl oleate 3 g/ha a.i., read-out: herbicidal activity against POLCO found): 0% | pest or weed control at 6 g/ha ([2]; Fallopia convolvulus, post-emergence, 480 h, methyl oleate 6 g/ha a.i., read-out: herbicidal activity against POLCO found): 0% | pest or weed control at 12 g/ha ([2]; Fallopia convolvulus, post-emergence, 480 h, methyl oleate 12 g/ha a.i., read-out: herbicidal activity against POLCO found): 0% | pest or weed control at 12 g/ha ([7]; Galium aparine, post-emergence, 480 h, methyl oleate 12 g/ha a.i., read-out: herbicidal activity against GALAP found): 0%

O=C(O)COc1ccc(Cl)cc1Cl [B.140, 2,4-D]
herbicidal activity against VIOAR found [8, 10]: 60 | herbicidal activity against VIOAR found [8, 11]: 65 | herbicidal activity against MATCH found [5, 10]: 0 | herbicidal activity against ABUTH found [6, 10]: 35 | herbicidal activity against ABUTH found [6, 11]: 85 | herbicidal activity against ERICA found [3, 10]: 70 | herbicidal activity against ERICA found [3, 11]: 80 | herbicidal activity against ALOMY found [1, 10]: 0 | herbicidal activity against ALOMY found [1, 11]: 0 | herbicidal activity against POLCO found [2, 10]: 65 | herbicidal activity against POLCO found [2, 11]: 75 | herbicidal activity against GALAP found [7, 10]: 0 | herbicidal activity against GALAP found [7, 11]: 0

COc1nn(C(=O)NS(=O)(=O)c2c(C(=O)O)csc2C)c(=O)n1C [thiencarbazone]
herbicidal activity against ERICA found ([3]; applied alone at 0.5 g/ha a.i.): 85 | herbicidal activity against APESV found [9]: 25

CCCOCCN(C(=O)CCl)c1c(CC)cccc1CC [B.135, pretilachlor]
pest or weed control at 200 g/ha ([5]; Matricaria chamomilla, post-emergence, 480 h, B.135 200 g/ha a.i., read-out: herbicidal activity against MATCH found): 0% | pest or weed control at 400 g/ha ([5]; Matricaria chamomilla, post-emergence, 480 h, B.135 400 g/ha a.i., read-out: herbicidal activity against MATCH found): 0% | pest or weed control at 100 g/ha ([6]; Abutilon theophrasti, post-emergence, 480 h, B.135 100 g/ha a.i., read-out: herbicidal activity against ABUTH found): 0% | pest or weed control at 200 g/ha ([6]; Abutilon theophrasti, post-emergence, 480 h, B.135 200 g/ha a.i., read-out: herbicidal activity against ABUTH found): 0% | pest or weed control at 400 g/ha ([6]; Abutilon theophrasti, post-emergence, 480 h, B.135 400 g/ha a.i., read-out: herbicidal activity against ABUTH found): 0% | pest or weed control at 100 g/ha ([3]; Erigeron canadensis, post-emergence, 480 h, B.135 100 g/ha a.i., read-out: herbicidal activity against ERICA found): 0% | pest or weed control at 200 g/ha ([3]; Erigeron canadensis, post-emergence, 480 h, B.135 200 g/ha a.i., read-out: herbicidal activity against ERICA found): 0% | pest or weed control at 400 g/ha ([3]; Erigeron canadensis, post-emergence, 480 h, B.135 400 g/ha a.i., read-out: herbicidal activity against ERICA found): 20% | pest or weed control at 100 g/ha ([4]; B.135 100 g/ha a.i.): 0% | pest or weed control at 200 g/ha ([4]; B.135 200 g/ha a.i.): 0% | pest or weed control at 400 g/ha ([4]; B.135 400 g/ha a.i.): 0% | pest or weed control at 200 g/ha ([2]; Fallopia convolvulus, post-emergence, 480 h, B.135 200 g/ha a.i., read-out: herbicidal activity against POLCO found): 0% | pest or weed control at 200 g/ha ([7]; Galium aparine, post-emergence, 480 h, B.135 200 g/ha a.i., read-out: herbicidal activity against GALAP found): 0%

Cc1c(C(=O)c2cnn(C)c2O)ccc(S(C)(=O)=O)c1C1=NOCC1 [B.107, topramezone]
herbicidal activity against MATCH found [5, 12]: 70 | herbicidal activity against ABUTH found [6, 12]: 85 | herbicidal activity against ABUTH found [6, 13]: 85 | herbicidal activity against ERICA found [3, 12]: 65 | herbicidal activity against ERICA found [3, 13]: 65 | herbicidal activity against POLCO found [2, 13]: 35 | herbicidal activity against GALAP found [7, 13]: 70

COC(=O)c1ccccc1S(=O)(=O)NC(=O)N(C)c1nc(C)nc(OC)n1 [B.63, tribenuron-methyl]
herbicidal activity against VIOAR found ([8]; g/ha a.i.: I.1 62.5, B.63 0.5, mixture 62.5+0.5): 65 | herbicidal activity against VIOAR found [8, 14]: 40 | herbicidal activity against MATCH found [5, 15]: 30 | herbicidal activity against ALOMY found [1, 15]: 0 | herbicidal activity against POLCO found ([2]; g/ha a.i.: I.1 31.25, B.63 1, mixture 31.25+1): 30 | herbicidal activity against POLCO found [2, 15]: 20 | herbicidal activity against POLCO found [2, 14]: 30

CC(C)C1(C)N=C(c2ncccc2C(=O)O)NC1=O (centres unmarked) [B.35, imazapyr]
pest or weed control at 5 g/ha ([8]; Viola arvensis, post-emergence, 5 g/ha a.i., read-out: herbicidal activity against VIOAR found): 55% | pest or weed control at 10 g/ha ([5]; Matricaria chamomilla, post-emergence, 480 h, 10 g/ha a.i., read-out: herbicidal activity against MATCH found): 55% | pest or weed control at 10 g/ha ([6]; Abutilon theophrasti, post-emergence, 480 h, 10 g/ha a.i., read-out: herbicidal activity against ABUTH found): 90% | pest or weed control at 5 g/ha ([3]; Erigeron canadensis, post-emergence, 480 h, 5 g/ha a.i., read-out: herbicidal activity against ERICA found): 75% | pest or weed control at 10 g/ha ([4]; 10 g/ha a.i.): 95% | pest or weed control at 5 g/ha ([2]; Fallopia convolvulus, post-emergence, 480 h, 5 g/ha a.i., read-out: herbicidal activity against POLCO found): 95%

CC(C)N(C)S(=O)(=O)NC(=O)c1cc(-n2c(=O)cc(C(F)(F)F)n(C)c2=O)c(F)cc1Cl [B.92, saflufenacil]
herbicidal activity against ERICA found [3, 16]: 80% | herbicidal activity against GALAP found [7, 16]: 80%
